# Key:
# class IIa HDACs [1] = test: Global quantitative proteomics, change in protein abundance in Kelly cells; format: cell-based, human; conditions: 5 hours, vs DMSO, moderated t-test
# Protocol: (§1) Cells were washed once with phosphate-buffered saline (PBS), harvested with CellstripperTM (Corning®), washed two additional times with PBS and snap frozen in liquid nitrogen. […] Proteins were precipitated using methanol/chloroform in Donovan et al., Elife 7:e38430 (2018). The precipitated protein was resuspended in 4 M Urea, 50 mM HEPES pH 7.4, followed by dilution to 1 M urea with the addition of 200 mM EPPS, pH 8. Proteins were first digested with LysC (1:50: enzyme:protein) for 12 hours at room temperature. The LysC digestion was diluted to 0.5 M Urea with 200 mM EPPS pH 8 followed by digestion with trypsin (1:50: enzyme:protein) for 6 hours at 37° C. Tandem mass tag (TMT) reagents (Thermo Fisher Scientific) were dissolved in anhydrous acetonitrile (ACN) according to manufacturer's instructions. Anhydrous ACN was added to each peptide sample to a final concentration of 30% v/v, and labeling was induced with the addition of TMT reagent to each sample at a ratio of 1:4 peptide:TMT label. The 11-plex labeling reactions were performed for 1.5 hours at room temperature and the reaction quenched by the addition of hydroxylamine to a final concentration of 0.3% for 15 minutes at room temperature. The sample channels were combined at a 1:1 ratio, desalted using C18 solid phase extraction cartridges (Waters®) and analyzed by LC-MS for channel ratio comparison. Samples were then combined using the adjusted volumes determined in the channel ratio analysis and dried down in a speed vacuum. The combined sample was then resuspended in 1% formic acid, and acidified (pH 2-3) before being subjected to desalting with C18 SPE (Sep-Pak®-, Waters®). […] Proteome Discoverer 2.2 (Thermo Fisher Scientific) was used for .RAW file processing and controlling peptide and protein level false discovery rates, assembling proteins from peptides, and protein quantification from peptides. […] TMT reporter ion intensities were measured using a 0.003 Da window around the theoretical m/z for each reporter ion in the MS3 scan. […]
# class IIa HDACs [2] = test: Global quantitative proteomics, change in protein abundance in MM.1S cells; format: cell-based, human; conditions: 1 μM, 5-hour treatment, vs DMSO, moderated t-test, FIG. 5
# Protocol: as §1, with “Tandem mass tag (TMT) reagents (Thermo Fisher Scientific) were dissolved in anhydrous acetonitrile (ACN) according to manufacturer's instructions. Anhydrous ACN was added to each peptide sample to a final concentration of 30% v/v, and labeling was induced with the addition of TMT reagent to each sample at a ratio of 1:4 peptide:TMT label. The 11-plex labeling reactions were performed for 1.5 hours at room temperature and the reaction quenched by the addition of hydroxylamine to a final concentration of 0.3% for 15 minutes at room temperature.” left out, “vacuum.” for “vacuum. The combined sample was then resuspended in 1% formic acid, and acidified (pH 2-3) before being subjected to desalting with C18 SPE (Sep-Pak®-, Waters®).”
# HDAC7 = molecular target: T1, HDAC7 (Homo sapiens, UniProt Q8WUI4); test: Global quantitative proteomics, change in protein abundance in Kelly cells; format: cell-based; parameters: endogenous in cells; host or cells: Kelly cells; conditions: 5-hour treatment, vs DMSO, FIG. 3
# T1 sequence (Q8WUI4 1-952): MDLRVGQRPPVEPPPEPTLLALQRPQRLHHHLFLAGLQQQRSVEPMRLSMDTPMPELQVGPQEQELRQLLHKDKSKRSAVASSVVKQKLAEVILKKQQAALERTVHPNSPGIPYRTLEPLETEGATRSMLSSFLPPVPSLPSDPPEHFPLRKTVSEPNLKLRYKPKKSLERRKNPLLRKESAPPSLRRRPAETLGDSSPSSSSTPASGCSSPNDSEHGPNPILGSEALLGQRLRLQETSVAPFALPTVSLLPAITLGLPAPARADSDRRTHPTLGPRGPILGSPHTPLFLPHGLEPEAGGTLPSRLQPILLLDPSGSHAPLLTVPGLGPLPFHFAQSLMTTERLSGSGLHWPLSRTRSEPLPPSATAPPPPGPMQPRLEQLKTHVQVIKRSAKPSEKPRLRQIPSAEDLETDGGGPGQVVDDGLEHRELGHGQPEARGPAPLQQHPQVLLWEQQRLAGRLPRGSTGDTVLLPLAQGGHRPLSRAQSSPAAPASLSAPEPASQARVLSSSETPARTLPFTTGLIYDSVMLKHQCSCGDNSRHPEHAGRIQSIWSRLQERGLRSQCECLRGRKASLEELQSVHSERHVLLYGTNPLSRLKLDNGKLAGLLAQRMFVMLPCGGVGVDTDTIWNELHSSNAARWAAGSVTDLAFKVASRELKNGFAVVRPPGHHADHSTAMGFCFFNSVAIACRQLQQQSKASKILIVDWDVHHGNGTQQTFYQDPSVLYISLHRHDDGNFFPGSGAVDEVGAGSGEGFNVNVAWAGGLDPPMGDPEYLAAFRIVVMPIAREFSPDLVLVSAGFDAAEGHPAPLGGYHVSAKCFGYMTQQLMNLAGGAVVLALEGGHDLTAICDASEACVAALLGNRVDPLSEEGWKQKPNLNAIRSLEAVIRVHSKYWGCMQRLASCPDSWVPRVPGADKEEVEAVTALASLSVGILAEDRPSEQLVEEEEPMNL
# Protocol: (§2) Cells were washed once with phosphate-buffered saline (PBS), harvested with CellstripperTM (Corning®), washed two additional times with PBS and snap frozen in liquid nitrogen. […] Proteins were precipitated using methanol/chloroform in Donovan et al., Elife 7:e38430 (2018). The precipitated protein was resuspended in 4 M Urea, 50 mM HEPES pH 7.4, followed by dilution to 1 M urea with the addition of 200 mM EPPS, pH 8. Proteins were first digested with LysC (1:50: enzyme:protein) for 12 hours at room temperature. The LysC digestion was diluted to 0.5 M Urea with 200 mM EPPS pH 8 followed by digestion with trypsin (1:50: enzyme:protein) for 6 hours at 37° C. Tandem mass tag (TMT) reagents (Thermo Fisher Scientific) were dissolved in anhydrous acetonitrile (ACN) according to manufacturer's instructions. Anhydrous ACN was added to each peptide sample to a final concentration of 30% v/v, and labeling was induced with the addition of TMT reagent to each sample at a ratio of 1:4 peptide:TMT label. The 11-plex labeling reactions were performed for 1.5 hours at room temperature and the reaction quenched by the addition of hydroxylamine to a final concentration of 0.3% for 15 minutes at room temperature. The sample channels were combined at a 1:1 ratio, desalted using C18 solid phase extraction cartridges (Waters®) and analyzed by LC-MS for channel ratio comparison. Samples were then combined using the adjusted volumes determined in the channel ratio analysis and dried down in a speed vacuum. The combined sample was then resuspended in 1% formic acid, and acidified (pH 2-3) before being subjected to desalting with C18 SPE (Sep-Pak®-, Waters®). […] The 96 resulting fractions were then pooled in a non-contiguous manner into 24 fractions and these fractions were used for subsequent mass spectrometry analysis. Data were collected using an Orbitrap FusionTM LumosTM mass spectrometer (Thermo Fisher Scientific, San Jose, CA, USA) coupled with a […] pump (Thermo Fisher Scientific). Peptides were separated on an EasySprayTM ES803.rev2 75 μm inner diameter microcapillary column (ThermoFisher Scientific). Peptides were separated using a 190 min gradient of 6-27% acetonitrile in 1.0% formic acid with a flow rate of 300 nL/min. Each analysis used an MS3-based TMT method as described in McAlister et al., Anal. Chem. 86(14):7150-7158 (2014). The data were acquired using a mass range of m/z 340-1350, resolution 120,000, automatic gain control (AGC) target 1×10^6, maximum injection time 100 ms, dynamic exclusion of 120 seconds for the peptide measurements in the Orbitrap FusionTM LumosTM mass spectrometer. Data dependent MS2 spectra were acquired in the ion trap with a normalized collision energy (NCE) set at 55%, AGC target set to 1.5×10^5 and a maximum injection time of 150 ms. MS3 scans were acquired in the Orbitrap FusionTM LumosTM mass spectrometer with a higher energy collision dissociation (HCD) set to 55%, AGC target set to 1.5×10^5, maximum injection time of 150 ms, resolution at 50,000 and with a maximum synchronous precursor selection (SPS) precursors set to 10. Proteome Discoverer 2.2 (Thermo Fisher Scientific) was used for .RAW file processing and controlling peptide and protein level false discovery rates, assembling proteins from peptides, and protein quantification from peptides. MS/MS spectra were searched against a Swissprot human database (December 2016) with both the forward and reverse sequences. […] TMT reporter ion intensities were measured using a 0.003 Da window around the theoretical m/z for each reporter ion in the MS3 scan. […] Reporter ion intensities were normalized and scaled using in-house scripts in the R framework. Statistical analysis was carried out using the limma package within the R framework as described in Ritchie et al., Nucleic Acids Res. 43(7):e47 (2015).
# HDAC5 = HDAC5 (Homo sapiens, UniProt Q9UQL6); test: as above; format: cell-based; parameters: endogenous in cells; host or cells: Kelly cells; conditions: 5 μM, 5-hour treatment, vs DMSO, FIG. 3
# Protocol: as §2
# Sequence of HDAC5 (Q9UQL6 whole entry): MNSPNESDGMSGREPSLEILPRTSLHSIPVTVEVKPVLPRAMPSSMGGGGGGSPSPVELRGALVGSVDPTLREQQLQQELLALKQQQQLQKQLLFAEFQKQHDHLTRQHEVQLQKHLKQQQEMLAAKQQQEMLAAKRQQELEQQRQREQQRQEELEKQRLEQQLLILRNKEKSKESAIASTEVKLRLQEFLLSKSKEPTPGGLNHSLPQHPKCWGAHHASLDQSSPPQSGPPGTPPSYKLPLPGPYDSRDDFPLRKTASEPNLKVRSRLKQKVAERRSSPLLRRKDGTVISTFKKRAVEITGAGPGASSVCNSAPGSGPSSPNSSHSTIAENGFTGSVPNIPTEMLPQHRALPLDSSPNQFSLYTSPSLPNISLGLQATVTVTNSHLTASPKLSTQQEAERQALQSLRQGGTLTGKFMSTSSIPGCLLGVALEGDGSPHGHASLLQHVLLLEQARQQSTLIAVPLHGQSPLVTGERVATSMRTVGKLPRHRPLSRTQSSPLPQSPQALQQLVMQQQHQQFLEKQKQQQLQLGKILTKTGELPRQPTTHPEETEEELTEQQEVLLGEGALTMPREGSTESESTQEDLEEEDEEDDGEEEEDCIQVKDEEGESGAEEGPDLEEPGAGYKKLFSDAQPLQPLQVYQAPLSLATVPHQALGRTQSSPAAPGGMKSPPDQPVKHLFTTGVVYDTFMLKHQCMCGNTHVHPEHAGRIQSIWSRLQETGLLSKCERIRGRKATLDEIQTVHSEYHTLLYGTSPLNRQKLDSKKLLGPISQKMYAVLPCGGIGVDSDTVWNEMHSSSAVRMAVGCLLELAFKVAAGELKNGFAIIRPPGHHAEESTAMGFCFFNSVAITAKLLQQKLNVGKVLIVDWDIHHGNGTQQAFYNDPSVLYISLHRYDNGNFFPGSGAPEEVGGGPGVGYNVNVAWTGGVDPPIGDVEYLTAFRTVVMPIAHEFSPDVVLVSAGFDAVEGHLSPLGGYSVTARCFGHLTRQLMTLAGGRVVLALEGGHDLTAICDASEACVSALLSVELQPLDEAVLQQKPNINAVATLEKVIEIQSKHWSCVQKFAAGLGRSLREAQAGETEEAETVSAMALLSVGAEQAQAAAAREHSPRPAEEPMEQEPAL
Compound,"class IIa HDAC levels (relative protein abundance) (class IIa HDACs [1]; 1 μM, FIG. 4B-4C)",class IIa HDAC levels (relative protein abundance) (class IIa HDACs [2]),protein expression level of HDAC7 (HDAC7; 1 μM),"class IIa HDAC levels (relative protein abundance) (class IIa HDACs [1]; 5 μM, FIG. 4A)",protein expression level of HDAC5 (HDAC5),protein expression level of HDAC7 (HDAC7; 5 μM)
CCN(CCOCCOCCC(=O)N[C@H](C(=O)N1C[C@H](O)C[C@H]1C(=O)N[C@@H](C)c1ccc(-c2scnc2C)cc1)C(C)(C)C)C[C@@H](C)NC(=O)c1ccc(-c2noc(C(F)(F)F)n2)cc1 [Compound 17],significant reduction,significant reduction,selective reduction in protein expression level,–,–,–
"O=C1CCC(N2C(=O)c3cccc(NCCN4CCC(CNC(=O)c5cccc(-c6noc(C(F)(F)F)n6)c5)(c5nc(-c6ccccc6)cs5)CC4)c3C2=O)C(=O)N1 (stereo not drawn) [Compound 3, N-((1-(2-((2-(2,6-dioxopiperidin-3-yl)-1,3-dioxoisoindolin-4-yl)amino)ethyl)-4-(4-phenylthiazol-2-yl)piperidin-4-yl)methyl)-3-(5-(trifluoromethyl)-1,2,4-oxadiazol-3-yl)benzamide]",–,–,–,significant reduction,reduction in protein expression level,reduction in protein expression level

# Reference: patent publication US20240246956A1, “CLASS IIA HISTONE DEACETYLASE (HDAC) DEGRADER LIGANDS AND METHODS OF USE THEREOF” (DANA-FARBER CANCER INSTITUTE, INC., priority 2021, published 2024)
